Experimental data reported in ChEMBL document CHEMBL1201862, “PubChem BioAssay data set” (2004).
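48-hour exposure; five concentrations; linearly interpolated endpoints. Abbreviation: GI50, concentration required for 50% inhibition of growth.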 Activity calls are given as the source filed them. No stated cut-off is given here; in the data, active = GI50 up to about 1.1 µM and inactive = higher.

What was measured:
Test in all cases: NCI-60 cell line screen, 48 h
[1] = test system: UACC-62
[2] = test system: Hs-578T
[3] = test system: SK-MEL-5
[4] = test system: SNB-75
[5] = test system: ACHN
[6] = test system: CAKI-1
[7] = test system: IGROV-1
[8] = test system: SF-295
[9] = test system: UACC-257
[10] = test system: 786-0
[11] = test system: COLO 205
[12] = test system: DU-145
[13] = test system: UO-31
[14] = test system: BT-549
[15] = test system: RPMI-8226
[16] = test system: K562
[17] = test system: M14
[18] = test system: Malme-3M
[19] = test system: MDA-N

| Structure (SMILES) | GI50 [1] | GI50 [2] | GI50 [3] | GI50 [4] | GI50 [5] | GI50 [6] | GI50 [7] | GI50 [8] | GI50 [9] | GI50 [10] | GI50 [11] | GI50 [12] | GI50 [13] | GI50 [14] | GI50 [15] | GI50 [16] | GI50 [17] | GI50 [18] | GI50 [19] |
| --- | --- | --- | --- | --- | --- | --- | --- | --- | --- | --- | --- | --- | --- | --- | --- | --- | --- | --- | --- |
| COc1cc(/C=C2\N=C(c3ccccc3)N(c3nc4c(Cl)cc(Cl)cc4s3)C2=O)ccc1O | 25.8 µM (inactive) | 18.2 µM (inactive) | 24.5 µM (inactive) | 39.3 µM (inactive) | 25.8 µM (inactive) | 46.3 µM (inactive) | 29.1 µM (inactive) | 34.4 µM (inactive) | 30.9 µM (inactive) | 35.9 µM (inactive) | 43.4 µM (inactive) | 34.8 µM (inactive) | 27 µM (inactive) | 21.1 µM (inactive) | 8.53 µM (inactive) | 24.8 µM (inactive) | 40.5 µM (inactive) |  |  |
| CC1=NN(c2ccccc2)C(=O)/C1=C/c1ccc(O)cc1 | > 100 µM (inactive) | > 100 µM (inactive) | > 100 µM (inactive) |  | > 100 µM (inactive) | > 100 µM (inactive) | > 100 µM (inactive) | > 100 µM (inactive) | > 100 µM (inactive) | > 100 µM (inactive) | > 100 µM (inactive) | > 100 µM (inactive) |  |  | 61.8 µM (inactive) | > 100 µM (inactive) | > 100 µM (inactive) | > 100 µM (inactive) | > 100 µM (inactive) |
| C/C(=N\Nc1nc2ccccc2n1C)c1cnccn1 | 0.366 µM (active) |  | 0.154 µM (active) | 5.13 µM (inactive) | 0.065 µM (active) | 0.0348 µM (active) | 0.0435 µM (active) | 0.367 µM (active) | 0.0483 µM (active) | 0.0671 µM (active) | < 0.0139 µM (active) |  | 0.0407 µM (active) | 5.25 µM (inactive) | < 0.0297 µM (active) | < 0.0316 µM (active) | 0.064 µM (active) | 0.065 µM (active) | 0.753 µM (active) |
| O=C(Cn1cc(-c2ccccc2)nn1)NC1CCCCC1 |  |  | > 100 µM (inactive) | > 100 µM (inactive) | > 100 µM (inactive) | > 100 µM (inactive) | > 100 µM (inactive) | > 100 µM (inactive) | > 100 µM (inactive) | > 100 µM (inactive) | > 100 µM (inactive) | > 100 µM (inactive) |  | > 100 µM (inactive) | > 100 µM (inactive) | > 100 µM (inactive) | > 100 µM (inactive) | > 100 µM (inactive) |  |
| CS/C(N)=N/c1cccc2ccccc12 | > 10 µM (inactive) |  | > 10 µM (inactive) | > 10 µM (inactive) | > 10 µM (inactive) | > 10 µM (inactive) | > 10 µM (inactive) | > 10 µM (inactive) | > 10 µM (inactive) | > 10 µM (inactive) | > 10 µM (inactive) | > 10 µM (inactive) | > 10 µM (inactive) |  | > 10 µM (inactive) | > 10 µM (inactive) | > 10 µM (inactive) | > 10 µM (inactive) | > 10 µM (inactive) |
| COC1(C)OC[C@@]2(C)OC(C)C1(C)C2O[Si](C(C)C)(C(C)C)C(C)C (stereo partly specified) | 31 µM (inactive) | 22.2 µM (inactive) | 20.9 µM (inactive) | 26.9 µM (inactive) | 25.2 µM (inactive) | 28.6 µM (inactive) | 28.7 µM (inactive) | 19.9 µM (inactive) | 19.9 µM (inactive) | 43.2 µM (inactive) | 17.8 µM (inactive) | 38.7 µM (inactive) | 45 µM (inactive) |  | 28.2 µM (inactive) | 26.5 µM (inactive) | 37.6 µM (inactive) | 18 µM (inactive) | 31.4 µM (inactive) |
| N#C/C(=C\n1ccc(=O)[nH]c1=S)C(N)=O | > 100 µM (inactive) | > 100 µM (inactive) | > 100 µM (inactive) | > 100 µM (inactive) | > 100 µM (inactive) | > 100 µM (inactive) | > 100 µM (inactive) | > 100 µM (inactive) | > 100 µM (inactive) | > 100 µM (inactive) | > 100 µM (inactive) | > 100 µM (inactive) | > 100 µM (inactive) |  | > 100 µM (inactive) | > 100 µM (inactive) | > 100 µM (inactive) | > 100 µM (inactive) | > 100 µM (inactive) |
| C=C(Br)CN(C(C)=O)C1CCCCC1 | > 100 µM (inactive) | > 100 µM (inactive) | > 100 µM (inactive) | > 100 µM (inactive) | > 100 µM (inactive) | > 100 µM (inactive) | > 100 µM (inactive) | > 100 µM (inactive) | > 100 µM (inactive) | > 100 µM (inactive) | > 100 µM (inactive) | > 100 µM (inactive) | > 100 µM (inactive) |  | > 100 µM (inactive) | > 100 µM (inactive) | > 100 µM (inactive) | > 100 µM (inactive) | > 100 µM (inactive) |
